Data from patent US20230278972A1, “SUBSTITUTED HALOALKYL SULFONANILIDE HERBICIDES” (FMC Corporation, priority 2020, published 2023).

Columns and labels:
Assay type in all cases: in vivo
[1] = tested on: blackgrass (Alopecurus myosuroides); experiment: Test A1 preemergence, blackgrass
From the text: (§1) Seeds of plant species selected from, blackgrass (Alopecurus myosuroides), corn (Zea mays), Foxtail, Giant (giant foxtail, Setaria faberi), goosegrass (Eleusine indica), kochia (Bassia scoparia), Oat, Wild (wild oat, Avena fatua), Pigweed, Palmer (palmer amaranth, palmer pigweed, Amaranthus palmeri), ragweed (common ragweed, Ambrosia artemisiifolia), Ryegrass, Italian (Italian ryegrass, Lolium multiflorum), soybean (Glycine max), and wheat (Triticum aestivum) were planted into a blend of loam soil and sand and treated preemergence with a directed soil spray using test chemicals formulated in a non-phytotoxic solvent mixture which included a surfactant. At the same time, plants selected from these crop and weed species and also galium (catchweed bedstraw, Galium aparine) and horseweed (Erigeron canadensis) were planted in pots containing the same blend of loam soil and sand and treated with postemergence applications of test chemicals formulated in the same manner. Plants ranged in height from 2 to 10 cm and were in the one- to two-leaf stage for the postemergence treatment. […] A dash (-) response means no test result.

[2] = tested on: corn (Zea mays); experiment: Test A1 preemergence, corn
From the text: as §1

[3] = tested on: Foxtail, Giant (giant foxtail, Setaria faberi); experiment: Test A1 preemergence, Foxtail, Giant
From the text: as §1

[4] = tested on: goosegrass (Eleusine indica); experiment: Test A1 preemergence, goosegrass
From the text: as §1

[5] = tested on: kochia (Bassia scoparia); experiment: Test A1 preemergence, kochia
From the text: as §1

[6] = tested on: Oat, Wild (wild oat, Avena fatua); experiment: Test A1 preemergence, Oat, Wild
From the text: as §1

[7] = tested on: Pigweed, Palmer (palmer amaranth, palmer pigweed, Amaranthus palmeri); experiment: Test A1 preemergence, Pigweed, Palmer
From the text: as §1

[8] = tested on: ragweed (common ragweed, Ambrosia artemisiifolia); experiment: Test A1 preemergence, ragweed
From the text: as §1

[9] = tested on: Ryegrass, Italian (Italian ryegrass, Lolium multiflorum); experiment: Test A1 preemergence, Ryegrass, Italian
From the text: as §1

[10] = tested on: soybean (Glycine max); experiment: Test A1 preemergence, soybean
From the text: as §1

[11] = tested on: wheat (Triticum aestivum); experiment: Test A1 preemergence, wheat
From the text: as §1

[12] = tested on: blackgrass (Alopecurus myosuroides); experiment: Test A1 postemergence, blackgrass; settings: Postemergence, 0 to 100 scale (0 no effect, 100 complete control)
From the text: as §1

[13] = tested on: corn (Zea mays); experiment: Test A1 postemergence, corn; settings: Postemergence
From the text: as §1

[14] = tested on: Foxtail, Giant (giant foxtail, Setaria faberi); experiment: Test A1 postemergence, Foxtail, Giant; settings: for Foxtail, Giant plant response rating: 31 g ai/ha, postemergence, 0 to 100 scale (0 no effect, 100 complete control); for Plant response rating, Foxtail, Giant: Postemergence, 125 g ai/ha, 0 to 100 scale
From the text: as §1

[15] = tested on: goosegrass (Eleusine indica); experiment: Test A1 postemergence, goosegrass; settings: for Goosegrass plant response rating: 31 g ai/ha, postemergence, 0 to 100 scale (0 no effect, 100 complete control); for Plant response rating, Goosegrass: Postemergence, 125 g ai/ha, 0 to 100 scale
From the text: as §1

[16] = tested on: kochia (Bassia scoparia); experiment: Test A1 postemergence, kochia; settings: for Kochia plant response rating: 31 g ai/ha, postemergence, 0 to 100 scale (0 no effect, 100 complete control); for Plant response rating, Kochia: Postemergence, 125 g ai/ha, 0 to 100 scale
From the text: as §1

[17] = tested on: Oat, Wild (wild oat, Avena fatua); experiment: Test A1 postemergence, Oat, Wild; settings: for Oat, Wild plant response rating: 31 g ai/ha, postemergence, 0 to 100 scale (0 no effect, 100 complete control); for Plant response rating, Oat, Wild: Postemergence, 125 g ai/ha, 0 to 100 scale
From the text: as §1

[18] = tested on: Pigweed, Palmer (palmer amaranth, palmer pigweed, Amaranthus palmeri); experiment: Test A1 postemergence, Pigweed, Palmer; settings: for Pigweed, Palmer plant response rating: 31 g ai/ha, postemergence, 0 to 100 scale (0 no effect, 100 complete control); for Plant response rating, Pigweed, Palmer: Postemergence, 125 g ai/ha, 0 to 100 scale
From the text: as §1

[19] = tested on: ragweed (common ragweed, Ambrosia artemisiifolia); experiment: Test A1 postemergence, ragweed; settings: for Ragweed plant response rating: 31 g ai/ha, postemergence, 0 to 100 scale (0 no effect, 100 complete control); for Plant response rating, Ragweed: Postemergence, 125 g ai/ha, 0 to 100 scale
From the text: as §1

[20] = tested on: Ryegrass, Italian (Italian ryegrass, Lolium multiflorum); experiment: Test A1 postemergence, Ryegrass, Italian; settings: for Ryegrass, Italian plant response rating: 31 g ai/ha, postemergence, 0 to 100 scale (0 no effect, 100 complete control); for Plant response rating, Ryegrass, Italian: Postemergence, 125 g ai/ha, 0 to 100 scale
From the text: as §1

[21] = tested on: soybean (Glycine max); experiment: Test A1 postemergence, soybean; settings: for Soybean plant response rating: 31 g ai/ha, postemergence, 0 to 100 scale (0 no effect, 100 complete control); for Plant response rating, Soybean: Postemergence, 125 g ai/ha, 0 to 100 scale
From the text: as §1

[22] = tested on: wheat (Triticum aestivum); experiment: Test A1 postemergence, wheat; settings: for Wheat plant response rating: 31 g ai/ha, postemergence, 0 to 100 scale (0 no effect, 100 complete control); for Plant response rating, Wheat: Postemergence, 125 g ai/ha, 0 to 100 scale
From the text: as §1

[23] = tested on: galium (catchweed bedstraw, Galium aparine); experiment: Test A1 postemergence, galium; settings: for Galium plant response rating: 31 g ai/ha, postemergence, 0 to 100 scale (0 no effect, 100 complete control); for Plant response rating, Galium: Postemergence, 125 g ai/ha, 0 to 100 scale
From the text: as §1

[24] = tested on: barnyardgrass (Echinochloa crus-galli); experiment: Test B1 flooded paddy test, barnyardgrass; settings: 250 g ai/ha, Flood, applied to paddy water, 2-leaf stage, visually evaluated after 10 to 14 days
From the text: (§2) A dash (-) response means no test result.

[25] = tested on: ducksalad (Heteranthera limosa); experiment: Test B1 flooded paddy test, ducksalad; settings: 250 g ai/ha, Flood, applied to paddy water, 2-leaf stage, visually evaluated after 10 to 14 days
From the text: as §2

[26] = tested on: rice (Oryza sativa); experiment: Test B1 flooded paddy test, rice; settings: 250 g ai/ha, Flood, applied to paddy water, 2-leaf stage, visually evaluated after 10 to 14 days
From the text: as §2

[27] = tested on: horseweed (Erigeron canadensis); experiment: Test A1 postemergence, horseweed
From the text: as §1

[28] = 31 g ai/ha, 0 to 100 scale (0 no effect, 100 complete control)
[29] = 125 g ai/ha, 0 to 100 scale, 0 no effect, 100 complete control
[30] = 31 g ai/ha, 0 to 100 scale (0 no effect, 100 complete control), 10 days

## COC1CCN(C(=O)c2cc(N(COC(=O)C(C)(C)C)S(=O)(=O)C(F)(F)F)c(C)c(C)c2C)CC1 [Compound 370]
[1]; [28]
  Plant response rating, Blackgrass: 0
[1]; [29]
  Plant response rating, Blackgrass: 0
[2]; [28]
  Plant response rating, Corn: 0
[2]; [29]
  Plant response rating, Corn: 0
[3]; [28]
  Plant response rating, Foxtail, Giant: 10
[3]; [29]
  Plant response rating, Foxtail, Giant: 90
[4]; [28]
  Plant response rating, Goosegrass: 30
[4]; [29]
  Plant response rating, Goosegrass: 90
[5]; [28]
  Plant response rating, Kochia: 0
[5]; [29]
  Plant response rating, Kochia: 20
[6]; [28]
  Plant response rating, Oat, Wild: 0
[6]; [29]
  Plant response rating, Oat, Wild: 0
[7]; [28]
  Plant response rating, Pigweed, Palmer: 30
[7]; [29]
  Plant response rating, Pigweed, Palmer: 70
[8]; [28]
  Plant response rating, Ragweed: 0
[8]; [29]
  Plant response rating, Ragweed: 70
[9]; [28]
  Plant response rating, Ryegrass, Italian: 30
[9]; [29]
  Plant response rating, Ryegrass, Italian: 30
[10]; [28]
  Plant response rating, Soybean: 0
[10]; [29]
  Plant response rating, Soybean: 0
[11]; [28]
  Plant response rating, Wheat: 0
[11]; [29]
  Plant response rating, Wheat: 10
[12]; 31 g ai/ha, 10 days
  Plant response rating, Blackgrass: 0
[12]; 125 g ai/ha
  Plant response rating, Blackgrass: 0
[13]; [30]
  Plant response rating, Corn: 0
[13]; 125 g ai/ha, 0 to 100 scale
  Plant response rating, Corn: 90
[14]
  Foxtail, Giant plant response rating: 10
  Plant response rating, Foxtail, Giant: 80
[15]
  Goosegrass plant response rating: 0
  Plant response rating, Goosegrass: 60
[16]
  Kochia plant response rating: 0
  Plant response rating, Kochia: 20
[17]
  Oat, Wild plant response rating: 0
  Plant response rating, Oat, Wild: 0
[18]
  Pigweed, Palmer plant response rating: 0
  Plant response rating, Pigweed, Palmer: 20
[19]
  Ragweed plant response rating: 50
  Plant response rating, Ragweed: 70
[20]
  Ryegrass, Italian plant response rating: 0
  Plant response rating, Ryegrass, Italian: 0
[21]
  Soybean plant response rating: 50
  Plant response rating, Soybean: 80
[22]
  Wheat plant response rating: 10
  Plant response rating, Wheat: 20
[23]
  Galium plant response rating: 90
  Plant response rating, Galium: 100
[24]
  Plant response rating, Barnyardgrass (0 to 100 scale, 0 is no effect, 100 is complete control): 95
[25]
  Plant response rating, Ducksalad (0 to 100 scale, 0 is no effect, 100 is complete control): 70
[26]
  Plant response rating, Rice (0 to 100 scale, 0 is no effect, 100 is complete control): 25

## CCOC(=O)N(c1cc(C2=NOC3CCCC23)c(CC)cc1C)S(=O)(=O)C(F)(F)F (stereo not drawn) [Compound 379]
[2]; [28]
  Plant response rating, Corn: 0
[2]; [29]
  Plant response rating, Corn: 0
[3]; [28]
  Plant response rating, Foxtail, Giant: 0
[3]; [29]
  Plant response rating, Foxtail, Giant: 70
[4]; [28]
  Plant response rating, Goosegrass: 20
[4]; [29]
  Plant response rating, Goosegrass: 90
[5]; [28]
  Plant response rating, Kochia: 0
[5]; [29]
  Plant response rating, Kochia: 10
[6]; [28]
  Plant response rating, Oat, Wild: 0
[6]; [29]
  Plant response rating, Oat, Wild: 20
[8]; [28]
  Plant response rating, Ragweed: 0
[8]; [29]
  Plant response rating, Ragweed: 0
[9]; [28]
  Plant response rating, Ryegrass, Italian: 0
[9]; [29]
  Plant response rating, Ryegrass, Italian: 40
[10]; [28]
  Plant response rating, Soybean: 0
[10]; [29]
  Plant response rating, Soybean: 0
[11]; [28]
  Plant response rating, Wheat: 0
[11]; [29]
  Plant response rating, Wheat: 30
[12]; 31 g ai/ha, 10 days
  Plant response rating, Blackgrass: 0
[12]; 125 g ai/ha
  Plant response rating, Blackgrass: 30
[13]; [30]
  Plant response rating, Corn: 0
[13]; 125 g ai/ha, 0 to 100 scale
  Plant response rating, Corn: 0
[14]
  Foxtail, Giant plant response rating: 0
  Plant response rating, Foxtail, Giant: 10
[15]
  Goosegrass plant response rating: 10
  Plant response rating, Goosegrass: 60
[16]
  Kochia plant response rating: 0
  Plant response rating, Kochia: 40
[17]
  Oat, Wild plant response rating: 0
  Plant response rating, Oat, Wild: 20
[18]
  Pigweed, Palmer plant response rating: 0
  Plant response rating, Pigweed, Palmer: 10
[19]
  Ragweed plant response rating: 20
  Plant response rating, Ragweed: 40
[20]
  Ryegrass, Italian plant response rating: 0
  Plant response rating, Ryegrass, Italian: 0
[21]
  Soybean plant response rating: 0
  Plant response rating, Soybean: 20
[22]
  Wheat plant response rating: 20
  Plant response rating, Wheat: 70
[23]
  Galium plant response rating: 0
  Plant response rating, Galium: 40
[27]; 31 g ai/ha, postemergence, 0 to 100 scale (0 no effect, 100 complete control)
  Horseweed plant response rating: 0
[27]; Postemergence, 125 g ai/ha, 0 to 100 scale
  Plant response rating, Horseweed: 50
[24]
  Plant response rating, Barnyardgrass (0 to 100 scale, 0 is no effect, 100 is complete control): 95
[25]
  Plant response rating, Ducksalad (0 to 100 scale, 0 is no effect, 100 is complete control): 60
[26]
  Plant response rating, Rice (0 to 100 scale, 0 is no effect, 100 is complete control): 0
